Measurements: US11479587B2, “Cationic intrinsically disordered antimicrobial peptides” (priority 2016, dated 2022)
Where “and” joins values, the source holds several entries; their conditions need not be identical. Equal values may be shown once. No end group written: not given here.

Key:
S. aureus ATCC 6538 = assay: CFU-assay, S. aureus-cidal activity; type: cell-based, Staphylococcus aureus
Protocol: Thus, within the present invention, the antimicrobial activity is generally measured in nutrient deficient 10 mM sodium phosphate buffer pH 5.5, containing 0.25% glucose, using the CFU-assay according to Steinberg and Lehrer, 1997 (supra), unless otherwise indicated. The CFU-assay allows determination of the minimal bactericidal concentration (MBC, e.g., MBC90 and MBC100; i.e. the concentration of compound required to achieve a specified reduction in bacterial cell number (microbial death or killing)).
Various peptides corresponding to repeat domains of hornerin (HR 1-11: HRNR 2606-2628; HR 1-17: HRNR 2656-2684 and HR 1-18: HRNR 2656-2677) were tested for P. aeruginosa ATCC 10145-cidal activity in 10 mM Na-phosphate buffer pH 5.5, containing 0.25% glucose by counting the numbers of colonies of surviving bacteria at serial, twofold dilutions from 300 μg/ml down to 19 ng/ml of each peptide (CFU-assay; Steinberg and Lehrer, 1997, Methods Mol. Biol. 78, 169-186).
Staphylococcus aureus is a major skin pathogen, which causes skin infections, in particular in atopic dermatitis. The sensitivity of S. aureus ATCC 6538 towards several CIDAMPs was assessed using the CFU-assay as above (see Example 1). HR 1-18, which lacks S. aureus.-bactericidal activity, is converted in a S. aureus-cidal peptide, when all His are replaced by Arg (HR 1-18 4H-4R; see Table 13 and FIG. 9). […] HR 1-18 4H-4R is rich in Ser and Arg and contains a single Leu residue. When this single Leu was replaced by Gly in S. aureus-cidal HR 1-18 4H-4R (forming HR 1-18 4H-4R/L-G), S. aureus-cidal activity was abolished at both pH 7.0 and pH 5.5 (see Table 13 and FIG. 9).

Hemolysis assay = type: cell-based; details: for HC50 at 1 h: human, washed erythrocytes from EDTA-blood, pH 7.4
Protocol: For the hemolysis assays EDTA-blood was centrifuged at 800×g for 10 min, and the plasma and buffy coat were removed. The erythrocytes were washed three times and resuspended in 5% PBS, pH 7.4. The cells were then incubated with end-over-end rotation for 1 h at 37° C. in the presence of different concentrations of peptides (0, 3, 10, 30, 60 μm). 0.1% Triton X-100 (Sigma-Aldrich) served as positive control. The samples were then centrifuged at 800×g for 10 min.
The absorbance of hemoglobin release was measured at 540 nm and is expressed as % of Triton X-100-induced hemolysis. These values of triplicates were plotted with Graph Pad Prism 4 as a dose response curve and the CC50 was determined.

[1] = Cytotoxicity (resazurin) assay
Protocol: For the cytotoxicity (resazurin) assay, HEK293 cells were counted manually in a Neubauer haemocytometer and plated at a density of 4000 cells/well into each well of the 384-well plates containing the 25×(2 μl) concentrated compounds. The medium used was Dulbecco's modified eagle medium (DMEM) supplemented with 10% foetal bovine serum (FBS). Cells were incubated together with the compounds for 20 h at 37° C., 5% CO2. To measure cytotoxicity, 5 μl (equals 100 μM final) resazurin was added to each well after incubation, and incubated for further 3 h at 37° C. with 5% CO2.
After final incubation fluorescence intensity was measured as F ex 560/10 nm, em 590/10 nm (F560/590) using a Tecan M1000 Pro monochromator plate reader. […] The concentration dependent percentage cytotoxicity was fitted to a dose response function (using Pipeline Pilot) and CC50 values determined.

P. aeruginosa ATCC 10145 = assay: CFU-assay, P. aeruginosa-cidal activity; type: cell-based, Pseudomonas aeruginosa

For GRHGSGLGHSSSHGQHGSGSGR [HR 1-18], which “CC50/MBC90 (S.aureus)” value (S. aureus ATCC 6538; pH 5.5) is on record?
The value was “No activity”.

And the HC50 (Hemolysis assay)?
Its HC50 is > 300 µg/mL.

And the HC50 at 1 h (Hemolysis assay)?
The HC50 at 1 h was > 143 µM.

And the CC50 [1]?
The CC50 was > 32 µg/mL and > 15.2 µM.

With GRRGGRGGRGRGR [GR13] as the sequence, how does the HC50 at 1 h (Hemolysis assay) read?
The HC50 at 1 h was > 220 µM.

What about the CC50 [1] of the same sequence?
Its CC50 is > 23.6 µM.

What does the source list for GRRGSGLGRSSSRGGRGSGSGR [HR 1-18 4H-4R]?
MBC90 (S. aureus ATCC 6538; pH 5.5, 0.25% glucose): 150 µg/mL; MBC100 (S. aureus ATCC 6538; pH 5.5, 0.25% glucose): >300 µg/mL; S. aureus MBC90 (S. aureus ATCC 6538; pH 7.0): 4.46 µM; S. aureus MBC100 (S. aureus ATCC 6538; pH 7.0): >143 µM; MBC90 (S. aureus ATCC 6538; pH 7.0, 0.25% glucose): 9.35 µg/mL and 9.375 µg/mL; MBC100 (S. aureus ATCC 6538; pH 7.0, 0.25% glucose): >300 µg/mL; max.killing (S. aureus ATCC 6538; pH 7.0, 0.25% glucose): max.killing: 98.8%; HC50 at 1 h (Hemolysis assay): > 150 µM; CC50 [1]: > 15.2 µM; MBC90 (P. aeruginosa ATCC 10145; pH 5.0, 0.25% glucose): 0.038 µg/mL; MBC100 (P. aeruginosa ATCC 10145; pH 5.0, 0.25% glucose): 0.15 µg/mL; P. aeruginosa MBC90 (P. aeruginosa ATCC 10145; pH 5.5): 0.018 µM; P. aeruginosa MBC100 (P. aeruginosa ATCC 10145; pH 5.5): 0.142 µM; MBC90 (P. aeruginosa ATCC 10145; pH 6.0, 0.25% glucose): 2.35 µg/mL; MBC100 (P. aeruginosa ATCC 10145; pH 6.0, 0.25% glucose): 4.7 µg/mL; MBC90 (P. aeruginosa ATCC 10145; pH 6.5, 0.25% glucose): 2.35 µg/mL; MBC100 (P. aeruginosa ATCC 10145; pH 6.5, 0.25% glucose): 4.7 µg/mL; MBC90 (P. aeruginosa ATCC 10145; pH 7.0, 0.25% glucose): 2.38 µg/mL and 2.35 µg/mL; MBC100 (P. aeruginosa ATCC 10145; pH 7.0, 0.25% glucose): 9.38 µg/mL

With GRRGSGLGRSSSRGQRGSGSGR [HR 1-18 HR] as the sequence, how does the HC50 (Hemolysis assay) read?
The HC50 was > 300 µg/mL.

What about the CC50 [1] of the same sequence?
Its CC50 is > 32 µg/mL.

What does the source list for HAHSGHGQSTQRGSRTAGR [FLG-22082-2100]?
HC50 at 1 h (Hemolysis assay): > 121 µM; CC50 [1]: > 12.9 µM

Which results are given for “LRHGSGLGHSSSHGQHGSGSGR (Modified peptide derived from human hornerin (HR 1-18 G2656L))”?
MBC90 (S. aureus ATCC 6538; pH 5.5, 0.25% glucose): 300 µg/mL; MBC100 (S. aureus ATCC 6538; pH 5.5, 0.25% glucose): >300 µg/mL; MBC90 (P. aeruginosa ATCC 10145; pH 5.0, 0.25% glucose): 4.7 µg/mL; MBC100 (P. aeruginosa ATCC 10145; pH 5.0, 0.25% glucose): >300 µg/mL

For NHHRRHHRCR [LCE3D55-64], which CC50 [1] is on record?
Its CC50 is > 32 µg/mL.

For SHHRHFRSHQCR [LCE3C55-66], which CC50 [1] is on record?
The CC50 was > 32 µg/mL.

What does the source list for SHHRHFRSHQCRR [LCE3C55-67]?
HC50 (Hemolysis assay): > 300 µg/mL; CC50 [1]: > 32 µg/mL

For SHHRPRLFHRHRH [LCE2A70-82], which CC50 [1] is on record?
Its CC50 is > 32 µg/mL.

For SHHRPRLFHRRRH [LCE2B74-86], which HC50 (Hemolysis assay) is on record?
Its HC50 is > 300 µg/mL.

And the CC50 [1]?
Its CC50 is > 32 µg/mL.

Which CC50 [1] does the source give for SHHRRRRSHCH [LCE1B78-88] here?
The CC50 was > 32 µg/mL.

Which results are given for “SRRSSSLSRSSSRSSRSSSSSR (Modified peptide derived from human hornerin (HR 1-18 4H-4R/9G-9S))”?
MBC90 (S. aureus ATCC 6538; pH 5.5, 0.25% glucose): 150 µg/mL; MBC100 (S. aureus ATCC 6538; pH 5.5, 0.25% glucose): >300 µg/mL; MBC90 (S. aureus ATCC 6538; pH 7.2, 0.25% glucose): 75 µg/mL; MBC100 (S. aureus ATCC 6538; pH 7.2, 0.25% glucose): >300 µg/mL; MBC90 (P. aeruginosa ATCC 10145; pH 5.0, 0.25% glucose): 0.15 µg/mL; MBC100 (P. aeruginosa ATCC 10145; pH 5.0, 0.25% glucose): 1.18 µg/mL
